Species: Mus musculus
Assay: not given
Details: SW-620, 5 mg/kg

Q: Which inhibition does the source give for COC1CN(C(=O)c2ccc3c(N)ncc(-c4ccc(-c5cnn(C)c5)cc4)c3n2)C1 here?
A: tde

Test system: not listed separately
Assay: in vitro
Details: human, Caco-2

Q: With Cn1cc(-c2ccc(-c3cnc(N)c4ccc(C(=O)N5CCOCC5)nc34)cc2)cn1 as the molecule, how does the Papp A→B at 2 h, 1 µM read?
A: 34 ×10⁻⁶ cm/s

Q: Which Papp A→B at 2 h, 1 µM does the source give for COC1(C)CN(C(=O)c2ccc3c(N)ncc(-c4ccc(-c5cnn(C)c5)cc4)c3n2)C1 here?
A: 40.1 ×10⁻⁶ cm/s

Q: For COC1(C)CN(C(=O)c2ccc3c(N)ncc(-c4ccc(-c5cnn(C)c5)cc4)c3c2)C1, which Papp A→B at 2 h, 1 µM is on record?
A: 25.2 ×10⁻⁶ cm/s

Q: With COC1CN(C(=O)c2ccc3c(N)ncc(-c4ccc(-c5cnn(C)c5)cc4)c3n2)C1 as the molecule, how does the Papp A→B at 2 h, 1 µM read?
A: 28.6 ×10⁻⁶ cm/s

Q: For Cn1cc(-c2ccc(-c3cnc(N)c4ccc(C(=O)N5CC(C)(F)C5)nc34)cc2)cn1, which Papp A→B at 2 h, 1 µM is on record?
A: 27.6 ×10⁻⁶ cm/s

Q: For Cn1cc(-c2ccc(-c3cnc(N)c4ccc(C(=O)N5CC(C)(F)C5)cc34)cc2)cn1, which Papp A→B at 2 h, 1 µM is on record?
A: 25.8 ×10⁻⁶ cm/s

Q: For Cn1cc(-c2ccc(-c3cnc(N)c4ccc(C(=O)N5CCNCC5)nc34)cc2)cn1, which Papp A→B at 2 h, 1 µM is on record?
A: 0.96 ×10⁻⁶ cm/s

Q: Which Papp A→B at 2 h, 1 µM does the source give for Cn1cc(-c2ccc(-c3cnc(N)c4ccc(C(=O)N5CCC5)cc34)cc2)cn1 here?
A: 27.2 ×10⁻⁶ cm/s

Q: With Cn1cc(-c2ccc(-c3cnc(N)c4ccc(C(=O)N5CCC5)nc34)cc2)cn1 as the molecule, how does the Papp A→B at 2 h, 1 µM read?
A: 42.6 ×10⁻⁶ cm/s

Q: With Cn1cc(-c2ccc(-c3cnc(N)c4ccc(C(=O)N5CC(F)(F)C5)cc34)cc2)cn1 as the molecule, how does the Papp A→B at 2 h, 1 µM read?
A: 39.7 ×10⁻⁶ cm/s

Q: Which Papp A→B at 2 h, 1 µM does the source give for Cn1cc(-c2ccc(-c3cnc(N)c4ccc(C(=O)NC5CC5)cc34)cc2)cn1 here?
A: 32.5 ×10⁻⁶ cm/s

Q: Which Papp A→B at 2 h, 1 µM does the source give for Cn1cc(-c2ccc(-c3cnc(N)c4ccc(C(=O)N5CC(F)(F)C5)nc34)cc2)cn1 here?
A: 23.9 ×10⁻⁶ cm/s

Q: Which Papp A→B at 2 h, 1 µM does the source give for Cn1cc(-c2ccc(-c3cnc(N)c4ccc(N5CCOC5=O)cc34)cc2)cn1 here?
A: 20.6 ×10⁻⁶ cm/s

— ChEMBL document CHEMBL3826875, “2,8-Disubstituted-1,6-Naphthyridines and 4,6-Disubstituted-Isoquinolines with Potent, Selective Affinity for CDK8/19” (ACS Med Chem Lett, 2016)
